Assay results taken from PMC8192494 (European journal of medicinal chemistry, 2021).
Values joined by “and” are separate entries in the source; they are usually repeats but may differ in a detail not shown here. Identical values can stand only once.

Columns and labels:
[1] = test system: LNCaP (AR+) androgen-sensitive human prostate adenocarcinoma cells; test: MTT antiproliferative activity assay on LNCaP cells; format: cell-based; details: relative to cyproterone acetate
[2] = test system: PC3 (AR−) androgen-insensitive human prostate adenocarcinoma cells; test: MTT antiproliferative activity assay on PC3 cells; format: cell-based; details: read-out: IC50 PC3 (AR−), 48 h, concentration inhibiting cell growth by 50%
[3] = test system: LNCaP, PC3 and DU145 prostate cancer cells; test: MTT antiproliferative activity, summarised over the three PCa cell lines; format: cell-based; details: Homo sapiens, read-out: IC50 range on different cell lines
[4] = test system: TS-induced growth of LNCaP (AR+) PCa cells; test: Inhibition of testosterone-induced cell proliferation of LNCaP PCa cells; format: cell-based, human; details: 48 h; for reduction relative to the proliferative response induced by 0.1 nM TS: 1 μM dimer
[5] = target: isolated recombinant CYP3A4 (Homo sapiens, UniProt P08684); test: Equilibrium ligand binding to CYP3A4; details: for high spin: high spin content of ligand-bound CYP3A4, mean of three ± SD; for Kd, fold lower than for 14β: relative to 14β
[6] = test system: DHT-induced growth of LNCaP (AR+) PCa cells; test: Inhibition of dihydrotestosterone-induced cell proliferation of LNCaP PCa cells; details: 0.1 nM DHT, 48 h; for inhibition of growth induced by DHT: 0.125 μM dimer
LNCaP (AR+) PCa cells = details: read-out: IC50 LNCaP (AR+); MTT antiproliferative assay; cited from earlier work
PC3 (AR−) PCa cells = details: read-out: IC50 PC3 (AR−); MTT antiproliferative assay; cited from earlier work

Sequence of isolated recombinant CYP3A4 (P08684 whole entry): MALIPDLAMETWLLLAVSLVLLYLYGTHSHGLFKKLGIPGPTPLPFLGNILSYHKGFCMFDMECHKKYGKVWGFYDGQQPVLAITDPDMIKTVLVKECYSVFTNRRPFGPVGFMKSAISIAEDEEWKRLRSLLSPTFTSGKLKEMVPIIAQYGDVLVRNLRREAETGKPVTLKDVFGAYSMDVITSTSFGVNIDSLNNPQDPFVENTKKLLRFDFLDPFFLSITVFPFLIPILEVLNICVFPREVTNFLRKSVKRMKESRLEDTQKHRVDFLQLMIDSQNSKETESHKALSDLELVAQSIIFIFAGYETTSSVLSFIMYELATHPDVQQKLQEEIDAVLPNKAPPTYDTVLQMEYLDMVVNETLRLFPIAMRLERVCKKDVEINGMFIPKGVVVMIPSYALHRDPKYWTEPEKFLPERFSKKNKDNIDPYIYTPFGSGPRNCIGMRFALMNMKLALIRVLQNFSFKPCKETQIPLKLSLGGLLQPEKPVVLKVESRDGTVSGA

Q: For `C=CC=C[C@@H]1CC2=CC(=O)CC[C@]2(C)[C@H]2CC[C@]3(C)[C@H](O)CC[C@H]3[C@H]12` [Compound 13α, 7α-(buta-1,3-dienyl)-4-androsten-17α-ol-3-one], which “times more active than CPA (IC50 ratio)” value [1] is on record?
A: The value was “about 4 times”.

Q: What about the IC50 [2] of the same compound?
A: The IC50 was 31.5 µM.

Q: With `C[C@]12CC[C@H]3[C@@H]([C@H]([C@H]4C=CC[C@H]5C(=O)OC(=O)[C@@H]45)CC4=CC(=O)CC[C@@]43C)[C@@H]1CC[C@@H]2O` [Compound 15, 4-(17β-hydroxy-4-androsten-3-one-7α-yl)-3a,4,7,7a-tetrahydro-isobenzofuran-1,3-dione] as the compound, how does the IC50 [3] read?
A: The IC50 was 62.5 to 131 µM.

Q: With `C[C@]12CC[C@H]3[C@@H]([C@H](/C=C/C=C/C=C/[C@@H]4CC5=CC(=O)CC[C@]5(C)[C@H]5CC[C@]6(C)[C@H](O)CC[C@H]6[C@H]45)CC4=CC(=O)CC[C@@]43C)[C@@H]1CC[C@H]2O` (relative stereo) [Compound 14α, trans, trans,trans-1,6-bis-(17α-hydroxy-4-androsten-3-one-7α-yl)hexatriene] as the compound, how does the “concentration at which 100% effective against TS-induced cell proliferation” value ([4]; 0.1 nM TS) read?
A: Its value is 0.25 µM.

Q: What about the “reduction relative to the proliferative response induced by 0.1 nM TS” value [4] of the same compound?
A: The value was ~ 141%.

Q: What about the high spin [5] of the same compound?
A: Its high spin is 46 ± 3%.

Q: What about the “Kd, fold lower than for 14β” value [5] of the same compound?
A: The value was ~ 4 fold.

Q: And the “concentration at which 100% effective against DHT-induced cell proliferation” value [6]?
A: The value was 1 µM.

Q: What about the “inhibition of growth induced by DHT” value [6] of the same compound?
A: Its value is “at least 45%”.

Q: For `C[C@]12CC[C@H]3[C@@H]([C@H](/C=C/C=C/C=C/[C@@H]4CC5=CC(=O)CC[C@]5(C)[C@H]5CC[C@]6(C)[C@@H](O)CC[C@H]6[C@H]45)CC4=CC(=O)CC[C@@]43C)[C@@H]1CC[C@@H]2O` (relative stereo) [Compound 14β, trans, trans,trans-1,6-bis-(17β-hydroxy-4-androsten-3-one-7α-yl)hexatriene], which “times more active than CPA (IC50 ratio)” value [1] is on record?
A: The value was ~ 5 times.

Q: What about the “concentration at which 100% effective against TS-induced cell proliferation” value ([4]; 0.1 nM TS) of the same compound?
A: Its value is 0.5 µM.

Q: What about the “inhibition of growth induced by TS” value ([4]; 0.125 μM dimer, 0.1 nM TS) of the same compound?
A: Its value is “at least 45%”.

Q: What about the “reduction relative to the proliferative response induced by 0.1 nM TS” value [4] of the same compound?
A: The value was 104%.

Q: What about the high spin [5] of the same compound?
A: The high spin was 49 ± 3%.

Q: And the “concentration at which 100% effective against DHT-induced cell proliferation” value [6]?
A: Its value is 1 µM.

Q: And the “inhibition of growth induced by DHT” value [6]?
A: The value was “at least 45%”.

Q: With `C=CC=C[C@@H]1CC2=CC(=O)CC[C@]2(C)[C@H]2CC[C@]3(C)[C@@H](O)CC[C@H]3[C@H]12` [Compound 13β, 7α-(buta-1,3-dienyl)-4-androsten-17β-ol-3-one] as the compound, how does the IC50 [2] read?
A: The IC50 was 34.1 µM.

Q: Which IC50 [3] does the source give for `C[C@]12CCC(=O)C=C1C[C@@H](/C=C/C=C/C=C/[C@@H]1CC3=CC(=O)CC[C@]3(C)[C@H]3CC[C@]4(C)C(=O)CC[C@H]4[C@H]13)[C@@H]1[C@@H]2CC[C@]2(C)C(=O)CC[C@@H]12` [Compound 14, trans, trans,trans-1,6-bis-(4-androsten-3,17-dione-7α-yl)hexatriene] here?
A: The IC50 was 29 to 72.7 µM.

Q: What about the high spin [5] of the same compound?
A: The high spin was 36 ± 2%.

Q: And the “Kd, fold lower than for 14β” value [5]?
A: The value was ~ 4 fold.

Q: For `C[C@]12CC[C@H]3[C@@H]([C@H](C/C=C/C[C@@H]4CC5=CC(=O)CC[C@]5(C)[C@H]5CC[C@]6(C)[C@@H](O)CC[C@H]6[C@H]45)CC4=CC(=O)CC[C@@]43C)[C@@H]1CC[C@@H]2O` [trans-10, reference compound], which high spin [5] is on record?
A: Its high spin is 65% and 65 ± 4%.

Q: What does the source list for `C[C@]12CC[C@H]3[C@@H]([C@H](C/C=C\C[C@@H]4CC5=CC(=O)CC[C@]5(C)[C@H]5CC[C@]6(C)[C@@H](O)CC[C@H]6[C@H]45)CC4=CC(=O)CC[C@@]43C)[C@@H]1CC[C@@H]2O` [cis-10]?
A: high spin [5]: 99 ± 1%; IC50 (LNCaP (AR+) PCa cells): 30.3 µM; IC50 (PC3 (AR−) PCa cells): 24.7 µM
